Assay results: BindingDB's records for PubMed 35367706 (University of Newcastle, 2022)

How the values were obtained:
[1] = Binding affinity to influenza A/Beijing/262/95 H1N1 neuraminidase expressed in baculovirus expression system using sialyl-lactose as substrate
[2] = Inhibition of Influenza A virus (A/Guangdong/03/2009(H1N1)) neuraminidase using 4-MUNANA as substrate preincubated for 1 hr followed by substrate addition and measured after 1 hr by fluorescence assay
[3] = Inhibition of Influenza A virus (A/Guangdong/05/2009(H1N1)) neuraminidase using 4-MUNANA as substrate preincubated for 1 hr followed by substrate addition and measured after 1 hr by fluorescence assay
[4] = Inhibition of Influenza A virus (A/GuangdongSB/01/2009(H1N1)) neuraminidase using 4-MUNANA as substrate preincubated for 1 hr followed by substrate addition and measured after 1 hr by fluorescence assay

`O=S(=O)(O)c1cccc(Nc2nc(Cl)nc(Nc3cccc(S(=O)(=O)O)c3)n2)c1` gave a Ki [1] of 0.13 µM.
Work on `Nc1c(S(=O)(=O)O)cc(Nc2ccc(Nc3nc(Cl)nc(Nc4ccccc4S(=O)(=O)O)n3)c(S(=O)(=O)O)c2)c2c1C(=O)c1ccccc1C2=O` yielded a Ki [1] of 2.9 µM.
Compound `C/C=C/Oc1cc(C=O)ccc1O` has an IC50 [2] of 28 µM, an IC50 [3] of 25 µM and an IC50 [4] of 27 µM.
`O=S(=O)(O)c1ccccc1Nc1nc(Cl)nc(Nc2ccccc2S(=O)(=O)O)n1` gave a Ki [1] of 0.28 µM.
